Source: patent publication US20220169639A1 (priority 2018, published 2022)

test system: HBeAg (surrogate marker for cccDNA) in HepDES19 cells; assay: Engineered HepDES19 primary screen assay (HBeAg ELISA); type: cell-based, HBV; conditions: Hepatitis B virus, 120 h, HBeAg in culture supernatant, 5 days incubation, read-out: IC50 (HepDES19 primary screen assay, inhibition of extracellular HBeAg level)
Source text: The assay was employed to screen for cccDNA inhibitors. HepDES19 is a cccDNA-producing cell line. In this cell line, HBeAg in the cell culture supernatant as surrogate marker, as HBeAg production depends on cccDNA level and activity. HepDES19 is an engineered cell line which contains a 1.1 unit length HBV genome, and pgRNA transcription from the transgene is controlled by Tetracycline (Tet). In the absence of Tet, pgRNA transcription will be induced, but HBV e antigen (HBeAg) could not be produced from this pgRNA due to very short leader sequence before the HBeAg start codon and the start codon is disrupted. Only after cccDNA is formed, the missing leader sequence and start codon mutation would be restored from the 3′-terminal redundancy of pgRNA, and then HBeAg could be synthesized. Therefore, HBeAg could be used as a surrogate marker for cccDNA (Zhou, T. et al., Antiviral Res. (2006), 72(2), 116-124; Guo, H. et al., J. Virol. (2007), 81(22), 12472-12484).
HepDES19 cells were seeded at 2×10^6 cells per T150 flask and cultured with the culture medium (Dulbecco's Modified Eagle Medium: Nutrient Mixture F-12 [DMEM-F12, Gibco Cat. 11320-82], 10% Fetal Bovine Serum [FBS, Clontech Cat. 631101], 0.1 mM Non-Essential Amino Acids Solution [NEAA, Gibco Cat. 11140-050], 50 μg/mL Penicillin-Streptomycin [PS, Invitrogen Cat. 15140-163], 500 μg/mL Geneticin [G418, Invitrogen Cat. 10131-027]) containing 3 μg/mL Tet (Sigma, Cat. 87128) for 5 days. Cells were then seeded at 4×10^6 cells per T150 in the same culture medium as described above in the absence of Tet for 8 days. Cells were then harvested and frozen at density of 2×10^6 cells per mL. For compound testing, the frozen cells were thawed and seeded into 96-well plates at a density of 6×10^4 cells per well. At 24 hours after seeding, half log serial dilutions of compounds made with Dimethyl sulfoxide (DMSO, Sigma, Cat. D2650) were further diluted with the same culture medium as described above before they were added to the cells to reach desired final compound concentrations and 1% DMSO concentration. Plates were then incubated at 37° C. for another 5 days before measurement of HBeAg level and cell viability. Intracellular HBeAg level were measured with enzyme-linked immunosorbent assay (ELISA) kit (Shanghai Kehua Diagnostic Medical Products Co., Ltd). Cell viability was assessed using Cell Counting Kit-8 (DonJindo, Cat. CK04-20). IC50 values were derived from the dose-response curve using 4 parameter logistic curve fit method.
The compounds of the present invention were tested for their capacity to inhibit extracellular HBeAg level as described herein.

`COc1cc(OCCOCCN2CC[C@@H](C(=O)O)C2)c(-c2cc(=O)c3cccc(Cl)c3o2)cc1C` [Example 050, (3R)-1-[2-[2-[2-(8-chloro-4-oxo-chromen-2-yl)-5-methoxy-4-methyl-phenoxy]ethoxy]ethyl]pyrrolidine-3-carboxylic acid] and `COc1cc(OCCOCCN2CC[C@H](C(=O)O)C2)c(-c2cc(=O)c3cccc(Cl)c3o2)cc1C` [Example 051, (3S)-1-[2-[2-[2-(8-chloro-4-oxo-chromen-2-yl)-5-methoxy-4-methyl-phenoxy]ethoxy]ethyl]pyrrolidine-3-carboxylic acid] are within 1.5-fold of each other in IC50: 6.93 µM for the first, 7.86 µM for the second.

Compared with `CN(CCCOc1cc(C(F)(F)F)ccc1-c1cc(=O)c2cccc(Cl)c2o1)CC(=O)O` [Example 134, 2-[3-[2-(8-chloro-4-oxo-chromen-2-yl)-5-(trifluoromethyl)phenoxy]propyl-methyl-amino]acetic acid], `O=C(O)CN(CCCOc1cc(C(F)(F)F)ccc1-c1cc(=O)c2cccc(Cl)c2o1)S(=O)(=O)c1ccccc1` [Example 143] is 3.4-fold lower in IC50: 8.17 µM for the first, 2.42 µM for the second. The second is the more potent here.

Compared with `Cc1ccc(-c2cc(=O)c3cccc(Cl)c3o2)c(OCCN2C(=O)N[C@@H](C(C)C)C2=O)c1` [Example 152], `C[C@@H]1NC(=O)N(CCOc2cc(C(F)(F)F)ccc2-c2cc(=O)c3cccc(Cl)c3o2)C1=O` [Example 155] is 11-fold higher in IC50: 0.48 µM for the first, 5.11 µM for the second. The first is the more potent here.

First: Cc1ccc(-c2cc(=O)c3cccc(Cl)c3o2)c(OCCNC(=O)C(=O)O)c1 [Example 121]
Second: COc1ccc(-c2cc(=O)c3cccc(Cl)c3o2)c(OCCNC(=O)C(=O)O)c1 [Example 111, 2-[2-[2-(8-chloro-4-oxo-chromen-2-yl)-5-methoxy-phenoxy]ethylamino]-2-oxo-acetic acid]
The IC50 of the first is 24-fold higher: 4.25 µM for the first, 0.18 µM for the second. The second is the more potent here.

First: CS(=O)(=O)NC(=O)[C@@H]1CCN(CCOc2cc(C(F)(F)F)ccc2-c2cc(=O)c3cccc(Cl)c3o2)C1 [Example 070, (3R)-1-[2-[2-(8-chloro-4-oxo-chromen-2-yl)-5-(trifluoromethyl)phenoxy]ethyl]-N-methylsulfonyl-pyrrolidine-3-carboxamide]
Second: CS(=O)(=O)NC(=O)C1CN(CCOc2cc(C(F)(F)F)ccc2-c2cc(=O)c3cccc(Cl)c3o2)CCO1 (centres unmarked) [Example 068, 4-[2-[2-(8-chloro-4-oxo-chromen-2-yl)-5-(trifluoromethyl)phenoxy]ethyl]-N-methylsulfonyl-morpholine-2-carboxamide]
The IC50 of the first is 5.5-fold lower: 1.01 µM for the first, 5.51 µM for the second.

`CS(=O)(=O)N1CCN(CCCOc2cc(C(F)(F)F)ccc2-c2cc(=O)c3cccc(Cl)c3o2)CC1` [Example 081, 8-chloro-2-[2-[3-(4-methylsulfonylpiperazin-1-yl)propoxy]-4-(trifluoromethyl)phenyl]chromen-4-one] and `CS(=N)(=O)C1CCN(CCOc2cc(C(F)(F)F)ccc2-c2cc(=O)c3cccc(Cl)c3o2)CC1` (centres unmarked) [Example 094, 8-chloro-2-[2-[2-[4-(methylsulfonimidoyl)-1-piperidyl]ethoxy]-4-(trifluoromethyl)phenyl]chromen-4-one] are within 1.5-fold of each other in IC50: 7.11 µM for the first, 9.79 µM for the second.

Going from `NS(=O)(=O)NCCOc1cc(C(F)(F)F)ccc1-c1cc(=O)c2cccc(Cl)c2o1` [Example 159, 8-chloro-4-oxo-2-[2-[2-(sulfamoylamino)ethoxy]-4-(trifluoromethyl)phenyl]chromene] to `O=c1cc(-c2ccc(C(F)(F)F)cc2OCCNS(=O)(=O)C2CC2)oc2c(Cl)cccc12` [Example 096], the IC50 falls from 0.83 µM to 0.13 µM (6.4-fold). The second is the more potent here.

Compared with `O=C(NCCCOc1cc(C(F)(F)F)ccc1-c1cc(=O)c2cccc(Cl)c2o1)C(=O)NS(=O)(=O)C1CC1` [Example 149, N-[3-[2-(8-chloro-4-oxo-chromen-2-yl)-5-(trifluoromethyl)phenoxy]propyl]-N′-cyclopropylsulfonyl-oxamide], `O=C(NCCOc1cc(C(F)(F)F)ccc1-c1cc(=O)c2cccc(Cl)c2o1)C(=O)NC1CC1` [Example 148, N-[2-[2-(8-chloro-4-oxo-chromen-2-yl)-5-(trifluoromethyl)phenoxy]ethyl]-N′-cyclopropyl-oxamide] is 7.3-fold lower in IC50: 8.79 µM for the first, 1.21 µM for the second. The second is the more potent here.

First: Cc1ccc(S(=O)(=O)NC(=O)NCCOc2cc(C(F)(F)F)ccc2-c2cc(=O)c3cccc(Cl)c3o2)cc1 [Example 158, 1-[2-[2-(8-chloro-4-oxo-chromen-2-yl)-5-(trifluoromethyl)phenoxy]ethyl]-3-(p-tolylsulfonyl)urea]
Second: Cc1ccc(S(=O)(=O)NC(=O)NCCCOc2cc(C)ccc2-c2cc(=O)c3cccc(Cl)c3o2)cc1 [Example 156, 1-[3-[2-(8-chloro-4-oxo-chromen-2-yl)-5-methyl-phenoxy]propyl]-3-(p-tolylsulfonyl)urea]
The IC50 of the first is 2-fold higher: 8.35 µM for the first, 4.14 µM for the second. The second is the more potent here.

First: CCOC(=O)C(=O)N(CCCOc1cc(C(F)(F)F)ccc1-c1cc(=O)c2cccc(Cl)c2o1)S(=O)(=O)CC [Example 138, ethyl 2-[3-[2-(8-chloro-4-oxo-chromen-2-yl)-5-(trifluoromethyl)phenoxy]propyl-ethylsulfonyl-amino]-2-oxo-acetate]
Second: CS(=O)(=O)CCNCCCOc1cc(C(F)(F)F)ccc1-c1cc(=O)c2cccc(Cl)c2o1 [Example 079, 8-chloro-2-[2-[3-(2-methylsulfonylethylamino)propoxy]-4-(trifluoromethyl)phenyl]chromen-4-one]
The IC50 of the first is 5.8-fold higher: 4.56 µM for the first, 0.78 µM for the second. The second is the more potent here.

Going from `O=c1cc(-c2ccc(Br)cc2OCCN[C@H]2CC[C@H](C(=O)O)CC2)oc2c(Cl)cccc12` [Example 056, trans-4-[2-[5-bromo-2-(8-chloro-4-oxo-chromen-2-yl)phenoxy]ethylamino]cyclohexanecarboxylic acid] to `O=C(O)[C@@H]1C[C@H](NCCCOc2cc(Br)ccc2-c2cc(=O)c3cccc(Cl)c3o2)CCO1` (relative stereo) [Example 060, cis-4-[3-[5-bromo-2-(8-chloro-4-oxo-chromen-2-yl)phenoxy]propylamino]tetrahydropyran-2-carboxylic acid], the IC50 rises from 1 µM to 4.87 µM (4.9-fold). The first is the more potent here.

`O=c1cc(-c2ccc(C(F)(F)F)cc2OCCCNS(=O)(=O)c2ccccc2)oc2c(Cl)cccc12` [Example 097] and `CC(NCCOc1cc(C(F)(F)F)ccc1-c1cc(=O)c2cccc(Cl)c2o1)C(N)=O` (centres unmarked) [Example 168, 2-[2-[2-(8-chloro-4-oxo-chromen-2-yl)-5-(trifluoromethyl)phenoxy]ethylamino]propanamide] are within 1.5-fold of each other in IC50: 1.16 µM for the first, 1.14 µM for the second.

Going from `Cc1ccc(-c2cc(=O)c3cccc(Cl)c3o2)c(OCCN(C(=O)C(=O)O)C2CC2)c1` [Example 135, 2-[2-[2-(8-chloro-4-oxo-chromen-2-yl)-5-methyl-phenoxy]ethyl-cyclopropyl-amino]-2-oxo-acetic acid] to `O=C(O)[C@@H]1CCCN1CCOc1ccccc1-c1cc(=O)c2cccc(Cl)c2o1` [Example 032, (2S)-1-[2-[2-(8-chloro-4-oxo-chromen-2-yl)phenoxy]ethyl]pyrrolidine-2-carboxylic acid], the IC50 rises from 0.21 µM to 0.65 µM (3.1-fold). The first is the more potent here.

First: COc1cc(OCCNC(=O)C(=O)O)c(-c2cc(=O)c3cccc(Cl)c3o2)cc1Br [Example 122]
Second: O=C(O)C1CCN(CCOc2ccccc2-c2cc(=O)c3cccc(Cl)c3o2)CC1 [Example 029, 1-[2-[2-(8-chloro-4-oxo-chromen-2-yl)phenoxy]ethyl]piperidine-4-carboxylic acid]
The IC50 of the first is 4.2-fold higher: 7.72 µM for the first, 1.85 µM for the second.

In the case of `O=c1cc(-c2ccc(C(F)(F)F)cc2OCCCNC2CCS(=O)(=O)CC2)oc2c(Cl)cccc12` [Example 078, 8-chloro-2-[2-[3-[(1,1-dioxothian-4-yl)amino]propoxy]-4-(trifluoromethyl)phenyl]chromen-4-one], the IC50 is reported as 7.8 µM.
